Measured values from patent US8431596B2 (Cancer Research Technology Limited, priority 2007, dated 2013).
“And” between values parts separate entries of the source, which are not always exact repeats. Equal entries are not always repeated.

Molecular target: T1, AXL (human catalytic domain) (Homo sapiens, UniProt P30530)
T1 construct: purchased Upstate Ltd. 14-512
T1 sequence (P30530 473-894): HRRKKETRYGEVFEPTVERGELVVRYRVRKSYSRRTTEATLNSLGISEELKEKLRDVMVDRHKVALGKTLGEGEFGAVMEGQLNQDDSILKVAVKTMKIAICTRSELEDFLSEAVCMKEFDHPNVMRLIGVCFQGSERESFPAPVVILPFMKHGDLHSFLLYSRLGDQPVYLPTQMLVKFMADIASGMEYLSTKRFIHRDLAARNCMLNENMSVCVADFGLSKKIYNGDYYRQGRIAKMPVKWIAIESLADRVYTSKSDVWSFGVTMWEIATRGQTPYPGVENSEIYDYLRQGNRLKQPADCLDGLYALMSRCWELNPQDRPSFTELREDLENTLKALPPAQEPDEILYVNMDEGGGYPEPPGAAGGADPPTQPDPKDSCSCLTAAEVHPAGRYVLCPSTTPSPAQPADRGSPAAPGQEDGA
Assay: AXL (human catalytic domain) Enzyme Activity Assay (IMAP fluorescence polarisation)
Type: biochemical
Method: Biological Methods AXL (human catalytic domain) Enzyme Activity Assay Reagents
Kinase Assay Reaction Buffer: This consisted of 20 mM HEPES pH 7.0, 10 mM MgCl2, 1 mM DTT, […], 0.01% Triton X100 (v/v), and 0.01% BSA (w/v). All buffer components were purchased from Sigma-Aldrich at reagent grade or higher.
Kinase: Recombinant AXL isoform 1 (aa473-894 corresponding to Genbank Accession Number NP 068713) at 2 mg/mL (20.8 μM) was purchased from Upstate Ltd. (Product code 14-512, lot #28164U). The enzyme was stored at −80° C. and a working stock was prepared to a concentration of 30 nM by diluting 20.8 μM stock 1:693 in cold (4° C.) 1× Reaction Buffer. Final enzyme concentration in the assay was 15 nM.
Substrate: Fluorescein labelled CSK-tide 5FAM-[…]-NH2 was obtained from Molecular Devices (Product code R7270) and used at a working concentration of 200 nM by diluting the 100 μM stock 1:500 in 1× Reaction Buffer in a mix with the enzyme. A negative control (lacking enzyme) was prepared at the same concentrations. Final substrate concentration in the assay was 100 nM.
ATP: Supplied by Sigma (product code A-7699). A 100 mM ATP stock was prepared in […] and used at a working concentration of 375 μM by diluting the 100 mM stock 1:266.6 in Reaction Buffer. Final ATP concentration in the assay was 150 μM; this concentration represents the KM.ATP for this enzyme calculated in this assay.
IMAP Reagents: IMAP screening express kit was obtained from Molecular Devices (product code R8127). The binding reagent was gently re-suspended before diluting by 1:1000 in buffer (Binding Buffer is supplied as a 5× stock and so was diluted with water prior to use—this assay used 40% buffer A and 60% buffer B) and then vortexed before addition to wells. The binding reagent was used at a final dilution of 1:1333.
1 μL samples of test compounds in 10% DMSO/water were added to “test” wells by dry-spotting using a Matrix Platemate Plus. 5 μL Kinase/Substrate in Reaction Buffer were added to columns 1-22 of a Corning black low binding 384 well #6754 (90 μL volume) microplate to give 12 nM and 100 nM reaction concentration respectively. 5 μL substrate in Reaction Buffer was added to columns 23 and 24 to give 100 nM reaction concentration. 4 μL ATP in Reaction Buffer was added to all wells to give 150 μM reaction concentration. The reaction mixture was then incubated at room temperature for 60 minutes. The incubation period was followed by the addition of 20 μL IMAP Binding Reagent in Binding Buffer to all wells. The IMAP reaction detection was further incubated at room temperature overnight. The FP on a Tecan Ultra Plate reader was recorded as a single read at Ex485 Em535.
Percentage inhibition was calculated based on activity of the test sample minus the average values in the blank wells relative to the average values measured in control wells minus the average values in the blank wells.
IC50 values were calculated from 10 point dose sigmoid ‘dose-response’ curves using XIfit software (IDBS Inc, USA). Data were fitted to a 4 parameter logistic model/sigmoidal dose response defined by the following equation:
[formula] where: • A=fit minimum (locked to 0); • B=fit maximum (locked to 100); • C=fit midpoint (pre-fit to 1); and • D=slope at linear portion of curve, hillslope (pre-fit to 0.1).
The value for C represents the IC50 of the test compound.

[1] = first data set, recombinant AXL isoform 1 aa473-894, 150 μM ATP
[2] = further data set (WW-001 through WW-169, XX-001 through XX-469, YY-001 through YY-016, ZZ-001 through ZZ-003), 150 μM ATP

Compound	IC50 [1]	IC50 [2] [nM]
COc1cc(-c2cccc3nc(NC(=O)C4CC4)nn23)ccc1O [WW-093]	1000 to 10000 nM	1000 to 10000
COc1c(C)cc(-c2cccc3nc(NC(=O)C4CC4)nn23)cc1C [WW-095]	1000 to 10000 nM	1000 to 10000
COc1cc(-c2cccc3nc(NC(=O)C4CC4)nn23)ccc1F [WW-098]	1000 to 10000 nM	1000 to 10000
O=C(Nc1nc2cccc(-c3ccc(OC(F)(F)F)cc3)n2n1)C1CC1 [WW-099]	1000 to 10000 nM	1000 to 10000
COc1ccc(-c2cccc3nc(NC(=O)C4CC4)nn23)cc1OC [WW-100]	1000 to 10000 nM	1000 to 10000
CCOc1ccc(-c2cccc3nc(NC(=O)C4CC4)nn23)cc1F [WW-101]	1000 to 10000 nM	1000 to 10000
O=C(Nc1nc2cccc(-c3cnn(Cc4ccccc4)c3)n2n1)C1CC1 [WW-105]	1000 to 10000 nM	1000 to 10000
O=C(Nc1nc2cccc(-c3ccc([N+](=O)[O-])cc3)n2n1)C1CC1 [WW-107]	1000 to 10000 nM	1000 to 10000
CC(C)Cn1cc(-c2cccc3nc(NC(=O)C4CC4)nn23)cn1 [WW-108]	1000 to 10000 nM	1000 to 10000
O=C(Nc1nc2cccc(-c3ccc(-n4cccn4)cc3)n2n1)C1CC1 [WW-109]	1000 to 10000 nM	1000 to 10000
CC(C)(C)OC(=O)Nc1ccc(-c2cccc3nc(NC(=O)C4CC4)nn23)cc1 [WW-110]	1000 to 10000 nM	1000 to 10000
CC(Nc1cccc2nc(NC(=O)C3CC3)nn12)c1ccccc1 (stereo not shown) [WW-113]	1000 to 10000 nM	1000 to 10000
CN(C(=O)OC(C)(C)C)c1ccc(-c2cccc3nc(NC(=O)C4CC4)nn23)cc1 [WW-119, {4-[2-(cyclopropanecarbonyl-amino)-[1,2,4]triazolo[1,5-a]pyridin-5-yl]-phenyl}-methyl-carbamic acid tert-butyl ester]	1000 to 10000 nM	1000 to 10000
CNc1ccc(-c2cccc3nc(NC(=O)C4CC4)nn23)cc1 [WW-120, Cyclopropanecarboxylic acid [5-(4-methylamino-phenyl)-[1,2,4]triazolo[1,5-a]pyridin-2-yl]-amide]	1000 to 10000 nM	1000 to 10000
O=C(Nc1nc2cccc(-c3ccc(OCC4CC4)cc3)n2n1)C1CC1 [WW-121]	1000 to 10000 nM	1000 to 10000
C#CCOc1ccc(-c2cccc3nc(NC(=O)C4CC4)nn23)cc1 [WW-122]	1000 to 10000 nM	1000 to 10000

Compound	IC50 [1]	IC50 [2] [nM]
COc1cccc(COc2ccc(-c3cccc4nc(NC(=O)C5CC5)nn34)cc2)c1 [WW-123, Cyclopropanecarboxylic acid {5-[4-(3-methoxy-benzyloxy)-phenyl]-[1,2,4]triazolo[1,5-a]pyridin-2-yl}-amide]	1000 to 10000 nM	1000 to 10000
CCCn1cc(-c2cccc3nc(NC(=O)C4CC4)nn23)cn1 [WW-124, Cyclopropanecarboxylic acid [5-(1-propyl-1H-pyrazol-4-yl)-[1,2,4]triazolo[1,5-a]pyridin-2-yl]-amide]	1000 to 10000 nM	1000 to 10000
COc1ccc(-c2cccc3nc(NC(=O)C4CC4(F)F)nn23)cc1 (stereo not shown) [WW-125]	1000 to 10000 nM	1000 to 10000
COc1ccc(Nc2cccc3nc(NC(=O)C4CC4)nn23)cc1 [WW-127, Cyclopropanecarboxylic acid [5-(4-methoxy-phenylamino)-[1,2,4]triazolo[1,5-a]pyridin-2-yl]-amide]	1000 to 10000 nM	1000 to 10000
O=C(Nc1nc2cccc(Nc3ccccc3Cl)n2n1)C1CC1 [WW-128]	1000 to 10000 nM	1000 to 10000
O=C(Nc1nc2cccc(Nc3cccc(Cl)c3)n2n1)C1CC1 [WW-129]	1000 to 10000 nM	1000 to 10000
CC(C)CCn1cc(-c2cccc3nc(NC(=O)C4CC4)nn23)cn1 [WW-135]	1000 to 10000 nM	1000 to 10000
CSc1ccc(-c2cccc3nc(NC(=O)C4CC4)nn23)cc1 [WW-136]	1000 to 10000 nM	1000 to 10000
O=C(Nc1nc2cccc(-c3cccc(-n4cccn4)c3)n2n1)C1CC1 [WW-137]	1000 to 10000 nM	1000 to 10000
CC(C)(C)c1ccc(-c2cccc3nc(NC(=O)C4CC4)nn23)cc1 [WW-139]	1000 to 10000 nM	1000 to 10000
O=C(Nc1nc2cccc(-c3ccc4c(c3)OCCCO4)n2n1)C1CC1 [WW-144]	1000 to 10000 nM	1000 to 10000
CCS(=O)(=O)n1cc(-c2cccc3nc(NC(=O)C4CC4)nn23)cn1 [WW-147, Cyclopropanecarboxylic acid [5-(1-ethanesulfonyl-1H-pyrazol-4-yl)-[1,2,4]triazolo[1,5-a]pyridin-2-yl]-amide]	1000 to 10000 nM	1000 to 10000
Cc1c(-c2cccc3nc(NC(=O)C4CC4)nn23)cnn1-c1ccccc1 [WW-148]	1000 to 10000 nM	1000 to 10000
O=C(Nc1nc2cccc(-c3cc[nH]c3)n2n1)C1CC1 [WW-149]	1000 to 10000 nM	1000 to 10000
CC(C)Oc1ccc(-c2cccc3nc(NC(=O)C4CC4)nn23)cc1 [WW-150]	1000 to 10000 nM	1000 to 10000

Results, then the compound that gave them:

IC50 [1]	IC50 [2] [nM]	Compound
1000 to 10000 nM	1000 to 10000	O=C(Nc1nc2cccc(NCc3ccccc3Cl)n2n1)C1CC1 [WW-082]
1000 to 10000 nM	1000 to 10000	Cc1ccc(-c2cccc3nc(NC(=O)C4CC4)nn23)cn1 [WW-084]
1000 to 10000 nM	1000 to 10000	O=C(Nc1nc2cccc(-c3cnc4ccccc4c3)n2n1)C1CC1 [WW-085]
1000 to 10000 nM	1000 to 10000	Cc1cc(-c2cccc3nc(NC(=O)C4CC4)nn23)ccn1 [WW-087]
1000 to 10000 nM	1000 to 10000	Cc1cc(-c2cccc3nc(NC(=O)C4CC4)nn23)cnc1F [WW-088]
< 1000 nM	100 to 1000	O=C(Nc1nc2cccc(-c3ccc4ccccc4c3)n2n1)C1CC1 [WW-089]
1000 to 10000 nM	1000 to 10000	O=C(Nc1nc2cccc(-c3ccc(F)c(F)c3)n2n1)C1CC1 [WW-090]
1000 to 10000 nM	1000 to 10000	O=C(Nc1nc2cccc(-c3cccc([N+](=O)[O-])c3)n2n1)C1CC1 [WW-091]
< 1000 nM	100 to 1000	O=C(Nc1nc2cccc(-c3ccc4ncccc4c3)n2n1)C1CC1 [WW-092]
< 1000 nM	100 to 1000	COc1ccc(-c2cccc3nc(NC(=O)C4CC4)nn23)cc1C [WW-094]
< 1000 nM	100 to 1000	O=C(Nc1nc2cccc(-c3ccc(O)c(F)c3)n2n1)C1CC1 [WW-096]
< 1000 nM	100 to 1000	O=C(Nc1nc2cccc(-c3ccc(F)c(O)c3)n2n1)C1CC1 [WW-097]
< 1000 nM	100 to 1000	O=C(Nc1nc2cccc(-c3ccc4c(c3)OCCO4)n2n1)C1CC1 [WW-102]
< 1000 nM and 664 nM	100 to 1000	Cc1cc(-c2cccc3nc(NC(=O)C4CC4)nn23)ccc1N(C)C [WW-103]
< 1000 nM	100 to 1000	O=C(Nc1nc2cccc(-c3ccc4cc[nH]c4c3)n2n1)C1CC1 [WW-106]
< 1000 nM	100 to 1000	O=C(Nc1nc2cccc(-c3ccc4occc4c3)n2n1)C1CC1 [WW-133]
